Experimental data taken from US20250127908A1, “HETEROBIFUNCTIONAL CONDITIONAL INHIBITORS” (Kolm Therapeutics Inc., priority 2023, published 2025).

Key:
[1] = system: AR and CBP or p300 ternary complex; assay: Ternary complex formation assay (sandwich ELISA on lysates of treated VCaP cells: AR capture, CBP or p300 detection); format: cell-based; conditions: VCaP cells treated with bifunctional for 1.5 hours; lysate; anti-AR capture, CBP or p300 antibody detection
Procedure: Example B-1: Ternary Complex Formation Assay
Preparation of Mouse Anti-AR Antibody Coated 96 Well Plates
Black MaxiSorp plates: coat with 50 μL of mouse 1/50 diluted AR antibody (Monoclonal Antibody (AR 441 from Thermo Fisher); diluted in phosphate buffered saline (PBS). Spin the liquid to the bottom of the wells, if necessary. Incubate overnight at 4° C. Next day, wash 3 times with 200 μL of TBST. Block with 200 μL of blocking buffer (5% BSA in TBST) at room temperature for 2 hours (BSA: A4503 or A2153 from Sigma). Wash plates 3 times with TBST. Plates are ready for lysates
Preparation of Dimerizer Treated Lysates
Culture cells in 96 wells at 50K VCaP cells/well for at least 3 days. Plate in 5% Omega charcoal stripped FBS in total volume of 200 uL. Treat with bifunctional for 1.5 hours by adding 1 μL of 200× stock in DMSO. Aspirate media/compound. Add and pipet-to-mix 70 μL of 1× AlphaLisa Lysis Buffer to each well (Perkin Elmer, AlphaLISA SureFire Ultra, diluted in water). Pipet up and down when adding lysis buffer to disrupt cells. Let lysis proceed for 30 min at 4° C.
Incubate for 1 hour at room temperature. Flick out the lysates. Wash 3 times with TBST. Add 75 uL of rabbit CBP or p300 antibody to each well (diluted 1:5000 in blocking buffer (5% BSA in TBST). CBP antibody: (D6C5) Rabbit mAb #7389; p300 antibody: (D8Z4E) Rabbit mAb #86377. Incubate overnight at 4° C. Wash 3 times with 300 uL TBST, each time on shaker for 5-10 min. Prepare goat anti-rabbit antibody conjugated to HRP (1/100K dilution in blocking buffer) Invitrogen Catalog number: 32260. Add 75 uL of HRP-conjugated goat anti-rabbit antibody. Incubate at room temperature for 1 hour. Flick out the HRP-antibody mixture. Wash 7-8 times with TBST, each time on shaker for 10 min. Later washes try to overflow the wells so that no residual HRP remains bound to the sides of the well. Prepare and add 75 uL/well of QuantaRed Enhance Chemifluorescent HRP Substrate solution. Immediately read fluorescence on BMG ClarioStar (ex: 570/em 585), and repeat the read in 5 minutes and 15 minutes.

VCaP cells = assay: VCaP growth inhibition assay (CTG); format: cell-based; conditions: Homo sapiens, 216 h, 30 pM R1881, 9-day treatment, CTG luminescence
Procedure: Example B-2: VCaP Growth Inhibition Assay
VCaP cells (ATCC Cat #CRL-2876) are plated at 1×10^4 cells per well of a white plastic 96-well cluster plate (Thermo Scientific Nunc Cat #165306) in 100 uL phenol red-free DMLEM (Gibco Cat #21063-029) media with […] (Omega Scientific Cat #FB-04). Cluster plates are returned to the incubator (37*C/5% CO2) for 72 hours prior to treatment. Just prior to treatment, 100 uL of phenol red-free DMEM/5% CSS and 60 pM Ri881 (Sigma Cat #R0908-10 mg) was added to each well of the cluster plates (Final R1881 concentration=30 pM). Compounds (200×) were added to each well in a volume of 1 uL, with serial dilutions (1:5) from 20 uM to 2 pM (final concentrations in well are 100 nM to 10 fMV). Cluster plates are returned to the incubator for 9 days.
After the 9-day treatment period, media was removed from the cluster plates by inversion and 100 uL room temperature CTG reagent (Promega Cat #G7573) is added to each well. The cluster plates are placed on a shaker and incubated at room temperature for 20 minutes. Following this shaking/incubation, cluster plates are read on a luminometer (BMG ClarioStar). IC50 values are obtained by graphing the RLU data vs. compound concentration with nonlinear regression 4-parameter logistic curves (GraphPad Prism).

Compound	Average Ternary Complex [1]	IC50 (VCaP cells)
CC(=O)N1CCc2c(c(N3CCCc4cc(-c5cnn(C)c5)c(C(F)F)cc43)nn2C2CCN(C3CC(Oc4ccc(-c5ccc(N6C(=S)N(c7ccc(C#N)c(C(F)(F)F)c7)C(=O)C6(C)C)cc5)cc4)C3)CC2)C1 (centres unmarked) [Compound 19]	B (B is >1 nM and ≤10 nM)	–
CNC(=O)N1CCc2c(c(N3CCCc4cc(-c5cnn(C)c5)c(C(F)F)cc43)nn2C2CCN(C(=O)COCCOCCN3CCN(CC4CCN(c5ccc([C@H]6c7ccc(O)cc7CC[C@H]6c6ccccc6)cc5)CC4)CC3)CC2)C1 [Compound 11]	–	> 100 nM
CC(=O)N1CCc2c(c(N3CCCc4cc(-c5cnn(C)c5)c(C(F)F)cc43)nn2C2CCN(C3CCC(Oc4ccc(-c5ccc(N6C(=S)N(c7ccc(C#N)c(C(F)(F)F)c7)C(=O)C6(C)C)cc5)cc4)C3)CC2)C1 (centres unmarked) [Compound 18]	B (B is >1 nM and ≤10 nM)	–
CC(=O)N1CCc2c(c(N3CCCc4cc(-c5cnn(C)c5)c(C(F)F)cc43)nn2C2CCN(C(=O)COC3CCN(c4ccc(N5C(=S)N(c6ccc(C#N)c(C(F)(F)F)c6)C(=O)C5(C)C)cc4)CC3)CC2)C1 [Compound 21]	B (B is >1 nM and ≤10 nM)	–
CNC(=O)N1CCc2c(c(N3CCCc4cc(-c5cnn(C)c5)c(C(F)F)cc43)nn2C2CCN(C(=O)COCC3CCN(c4ccc([C@H]5c6ccc(O)cc6CC[C@H]5c5ccccc5)cc4)CC3)CC2)C1 [Compound 8]	–	1 to 100 nM
CNC(=O)N1CCc2c(c(N3CCCc4cc(-c5cnn(C)c5)c(C(F)F)cc43)nn2C2CCN(C(=O)COCCCC3CCN(c4ccc([C@H]5c6ccc(O)cc6CC[C@H]5c5ccccc5)cc4)CC3)CC2)C1 [Compound 9]	–	1 to 100 nM
CNC(=O)N1CCc2c(c(N3CCCc4cc(-c5cnn(C)c5)c(C(F)F)cc43)nn2C2CCN(C(=O)CCC3CCN(c4ccc([C@H]5c6ccc(O)cc6CC[C@H]5c5ccccc5)cc4)CC3)CC2)C1 [Compound 7]	–	1 to 100 nM
CC(=O)N1CCc2c(c(-c3cccc4cc(-c5ccc(CCC6CCN(c7ccc(C8CCN(c9ccc(C#N)c(C(F)(F)F)c9)CC8)cc7)CC6)nc5)ncc34)nn2C2CCOCC2)C1 [Compound 14, 4-[4-[4-[4-[2-[5-[8-(5-acetyl-1-tetrahydropyran-4-yl-6,7-dihydro-4H-pyrazolo[4,3-c]pyridin-3-yl)-3-isoquinolyl]-2-pyridyl]ethyl]-1-piperidyl]phenyl]-1-piperidyl]-2-(trifluoromethyl)benzonitrile]	D (D is active and >100 nM)	> 100 nM
CC(=O)N1CCc2c(c(N3CCCc4cc(C#N)ccc43)nn2C2CCN(C(=O)C3CCN(c4ccc(C5CCN(c6ccc(C#N)c(C(F)(F)F)c6)CC5)cc4)CC3)CC2)C1 [Compound 12, 1-[5-acetyl-1-[1-[1-[4-[1-[4-cyano-3-(trifluoromethyl)phenyl]-4-piperidyl]phenyl]piperidine-4-carbonyl]-4-piperidyl]-6,7-dihydro-4H-pyrazolo[4,3-c]pyridin-3-yl]-3,4-dihydro-2H-quinoline-6-carbonitrile]	D (D is active and >100 nM)	> 100 nM
CNC(=O)N1CCc2c(c(N3CCCc4cc(-c5cnn(C)c5)c(C(F)F)cc43)nn2C2CCN(C(=O)CC3CCN(c4ccc([C@H]5c6ccc(O)cc6CC[C@H]5c5ccccc5)cc4)CC3)CC2)C1 [Compound 6]	–	1 to 100 nM
CC(=O)N1CCc2c(c(N3CCCc4cc(-c5cnn(C)c5)c(C(F)F)cc43)nn2C2CCN(CCOCCOc3ccc(C4CCN(c5ccc(C#N)c(C(F)(F)F)c5)CC4)cc3)CC2)C1 [Compound 2, 4-[4-[4-[2-[2-[4-[5-acetyl-3-[7-(difluoromethyl)-6-(1-methylpyrazol-4-yl)-3,4-dihydro-2H-quinolin-1-yl]-6,7-dihydro-4H-pyrazolo[4,3-c]pyridin-1-yl]-1-piperidyl]ethoxy]ethoxy]phenyl]-1-piperidyl]-2-(trifluoromethyl)benzonitrile]	D (D is active and >100 nM)	–
CC(=O)N1CCc2c(c(N3CCCc4cc(-c5cnn(C)c5)c(C(F)F)cc43)nn2C2CCN(CCCCOc3ccc(C4CCN(c5ccc(C#N)c(C(F)(F)F)c5)CC4)cc3)CC2)C1 [Compound 3, 4-[4-[4-[4-[4-[5-acetyl-3-[7-(difluoromethyl)-6-(1-methylpyrazol-4-yl)-3,4-dihydro-2H-quinolin-1-yl]-6,7-dihydro-4H-pyrazolo[4,3-c]pyridin-1-yl]-1-piperidyl]butoxy]phenyl]-1-piperidyl]-2-(trifluoromethyl)benzonitrile]	D (D is active and >100 nM)	–
CC(=O)N1CCc2c(c(N3CCCc4cc(-c5cnn(C)c5)c(C(F)F)cc43)nn2C2CCN(CCOC3CCN(c4ccc(N5C(=S)N(c6ccc(C#N)c(C(F)(F)F)c6)C(=O)C5(C)C)cc4)CC3)CC2)C1 [Compound 20]	B (B is >1 nM and ≤10 nM)	–
CC(=O)N1CCc2c(c(N3CCCc4cc(-c5cnn(C)c5)c(C(F)F)cc43)nn2C2CCN(CCCOc3ccc(C4CCN(c5ccc(C#N)c(C(F)(F)F)c5)CC4)cc3)CC2)C1 [Compound 4, 4-[4-[4-[3-[4-[5-acetyl-3-[7-(difluoromethyl)-6-(1-methylpyrazol-4-yl)-3,4-dihydro-2H-quinolin-1-yl]-6,7-dihydro-4H-pyrazolo[4,3-c]pyridin-1-yl]-1-piperidyl]propoxy]phenyl]-1-piperidyl]-2-(trifluoromethyl)benzonitrile]	D (D is active and >100 nM)	> 100 nM
CC(=O)N1CCc2c(c(N3CCCc4cc(-c5cnn(C)c5)c(C(F)F)cc43)nn2C2CCN(CCCOc3ccc(-c4ccc(N5C(=S)N(c6ccc(C#N)c(C(F)(F)F)c6)C(=O)C5(C)C)cc4)cc3)CC2)C1 [Compound 1, 4-[3-[4-[4-[3-[4-[5-acetyl-3-[7-(difluoromethyl)-6-(1-methylpyrazol-4-yl)-3,4-dihydro-2H-quinolin-1-yl]-6,7-dihydro-4H-pyrazolo[4,3-c]pyridin-1-yl]-1-piperidyl]propoxy]phenyl]phenyl]-4,4-dimethyl-5-oxo-2-thioxo-imidazolidin-1-yl]-2-(trifluoromethyl)benzonitrile]	B (B is >1 nM and ≤10 nM)	> 100 nM
CC(=O)N1CCc2c(c(N3CCCc4cc(C#N)ccc43)nn2C2CCN(CC3CCN(c4ccc(C5CCN(c6ccc(C#N)c(C(F)(F)F)c6)CC5)cc4)CC3)CC2)C1 [Compound 13, 1-[5-acetyl-1-[1-[[1-[4-[1-[4-cyano-3-(trifluoromethyl)phenyl]-4-piperidyl]phenyl]-4-piperidyl]methyl]-4-piperidyl]-6,7-dihydro-4H-pyrazolo[4,3-c]pyridin-3-yl]-3,4-dihydro-2H-quinoline-6-carbonitrile]	D (D is active and >100 nM)	> 100 nM
CC(=O)N1CCc2c(c(-c3cccc4cc(-c5cnn(CCOC6CCN(c7ccc(C8CCN(c9ccc(C#N)c(C(F)(F)F)c9)CC8)cc7)CC6)c5)ncc34)nn2C2CCOCC2)C1 [Compound 15, 4-[4-[4-[4-[2-[4-[8-(5-acetyl-1-tetrahydropyran-4-yl-6,7-dihydro-4H-pyrazolo[4,3-c]pyridin-3-yl)-3-isoquinolyl]pyrazol-1-yl]ethoxy]-1-piperidyl]phenyl]-1-piperidyl]-2-(trifluoromethyl)benzonitrile]	D (D is active and >100 nM)	1 to 100 nM
